Tests used:
[1] = system: Homo sapiens; assay: Drug concentration at steady state in human at 750 mg, po TID or 1250 mg, po BID after 12 hrs; assay type: ADME, organism-based; conditions: in vivo
[2] = target: ATP-binding cassette sub-family C member 2 (Homo sapiens, UniProt Q92887); assay: Inhibition of human MRP2 overexpressed in Sf9 cell membrane vesicles assessed as uptake of [3H]-estradiol-17beta-D-glucuronide in presence of ATP and GSH measured after 20 mins by membrane vesicle transport assay
Sequence of ATP-binding cassette sub-family C member 2 (Q92887 whole entry): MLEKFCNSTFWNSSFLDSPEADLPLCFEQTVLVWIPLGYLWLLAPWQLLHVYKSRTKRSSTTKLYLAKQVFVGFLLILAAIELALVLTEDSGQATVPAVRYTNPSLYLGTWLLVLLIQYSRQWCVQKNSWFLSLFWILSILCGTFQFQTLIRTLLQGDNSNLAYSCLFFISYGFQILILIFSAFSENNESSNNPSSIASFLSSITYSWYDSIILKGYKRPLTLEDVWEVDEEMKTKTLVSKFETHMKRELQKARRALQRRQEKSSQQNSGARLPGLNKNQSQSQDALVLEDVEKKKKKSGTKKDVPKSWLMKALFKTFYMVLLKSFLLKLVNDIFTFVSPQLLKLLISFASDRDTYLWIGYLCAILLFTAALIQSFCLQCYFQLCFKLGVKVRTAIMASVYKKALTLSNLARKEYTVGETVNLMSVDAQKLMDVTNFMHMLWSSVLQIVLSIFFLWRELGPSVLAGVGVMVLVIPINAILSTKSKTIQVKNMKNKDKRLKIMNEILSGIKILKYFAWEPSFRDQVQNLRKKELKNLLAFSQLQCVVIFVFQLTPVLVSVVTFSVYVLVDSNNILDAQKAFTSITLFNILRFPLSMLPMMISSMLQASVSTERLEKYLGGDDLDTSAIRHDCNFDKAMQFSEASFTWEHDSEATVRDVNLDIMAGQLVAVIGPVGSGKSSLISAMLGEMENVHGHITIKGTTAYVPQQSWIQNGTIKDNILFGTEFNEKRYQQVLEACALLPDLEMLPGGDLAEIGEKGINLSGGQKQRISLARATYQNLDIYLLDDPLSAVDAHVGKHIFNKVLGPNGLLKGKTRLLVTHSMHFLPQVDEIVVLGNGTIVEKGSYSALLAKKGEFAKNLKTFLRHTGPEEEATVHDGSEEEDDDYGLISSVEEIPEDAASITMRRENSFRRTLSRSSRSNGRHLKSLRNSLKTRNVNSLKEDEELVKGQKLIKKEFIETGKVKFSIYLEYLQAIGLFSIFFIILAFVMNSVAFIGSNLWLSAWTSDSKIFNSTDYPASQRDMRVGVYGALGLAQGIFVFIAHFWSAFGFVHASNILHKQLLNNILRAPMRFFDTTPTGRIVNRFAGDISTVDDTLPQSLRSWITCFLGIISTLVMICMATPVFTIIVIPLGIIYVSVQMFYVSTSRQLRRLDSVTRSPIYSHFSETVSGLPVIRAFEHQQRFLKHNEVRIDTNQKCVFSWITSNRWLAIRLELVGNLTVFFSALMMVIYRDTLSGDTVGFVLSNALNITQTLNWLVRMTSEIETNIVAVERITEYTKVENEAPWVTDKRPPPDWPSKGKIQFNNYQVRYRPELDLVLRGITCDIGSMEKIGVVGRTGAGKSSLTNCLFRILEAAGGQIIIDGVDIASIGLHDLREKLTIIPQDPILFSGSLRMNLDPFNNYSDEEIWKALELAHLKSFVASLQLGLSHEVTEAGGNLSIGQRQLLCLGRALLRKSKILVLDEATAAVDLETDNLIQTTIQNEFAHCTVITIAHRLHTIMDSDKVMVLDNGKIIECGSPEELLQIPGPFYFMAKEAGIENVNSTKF

[3] = AUC in human at 750 mg, po TID or 1250 mg, po BID after 12 hrs; assay type: ADME, organism-based; parameters: dose 750 mg, time < 12 hr, route oral; conditions: in vivo
[4] = target: ATP-binding cassette sub-family C member 3 (Homo sapiens, UniProt O15438); assay: Inhibition of human MRP3 overexpressed in Sf9 insect cell membrane vesicles assessed as uptake of [3H]-estradiol-17beta-D-glucuronide in presence of ATP and GSH measured after 10 mins by membrane vesicle transport assay; assay type: ADME, cell-based
Sequence of ATP-binding cassette sub-family C member 3 (O15438 whole entry): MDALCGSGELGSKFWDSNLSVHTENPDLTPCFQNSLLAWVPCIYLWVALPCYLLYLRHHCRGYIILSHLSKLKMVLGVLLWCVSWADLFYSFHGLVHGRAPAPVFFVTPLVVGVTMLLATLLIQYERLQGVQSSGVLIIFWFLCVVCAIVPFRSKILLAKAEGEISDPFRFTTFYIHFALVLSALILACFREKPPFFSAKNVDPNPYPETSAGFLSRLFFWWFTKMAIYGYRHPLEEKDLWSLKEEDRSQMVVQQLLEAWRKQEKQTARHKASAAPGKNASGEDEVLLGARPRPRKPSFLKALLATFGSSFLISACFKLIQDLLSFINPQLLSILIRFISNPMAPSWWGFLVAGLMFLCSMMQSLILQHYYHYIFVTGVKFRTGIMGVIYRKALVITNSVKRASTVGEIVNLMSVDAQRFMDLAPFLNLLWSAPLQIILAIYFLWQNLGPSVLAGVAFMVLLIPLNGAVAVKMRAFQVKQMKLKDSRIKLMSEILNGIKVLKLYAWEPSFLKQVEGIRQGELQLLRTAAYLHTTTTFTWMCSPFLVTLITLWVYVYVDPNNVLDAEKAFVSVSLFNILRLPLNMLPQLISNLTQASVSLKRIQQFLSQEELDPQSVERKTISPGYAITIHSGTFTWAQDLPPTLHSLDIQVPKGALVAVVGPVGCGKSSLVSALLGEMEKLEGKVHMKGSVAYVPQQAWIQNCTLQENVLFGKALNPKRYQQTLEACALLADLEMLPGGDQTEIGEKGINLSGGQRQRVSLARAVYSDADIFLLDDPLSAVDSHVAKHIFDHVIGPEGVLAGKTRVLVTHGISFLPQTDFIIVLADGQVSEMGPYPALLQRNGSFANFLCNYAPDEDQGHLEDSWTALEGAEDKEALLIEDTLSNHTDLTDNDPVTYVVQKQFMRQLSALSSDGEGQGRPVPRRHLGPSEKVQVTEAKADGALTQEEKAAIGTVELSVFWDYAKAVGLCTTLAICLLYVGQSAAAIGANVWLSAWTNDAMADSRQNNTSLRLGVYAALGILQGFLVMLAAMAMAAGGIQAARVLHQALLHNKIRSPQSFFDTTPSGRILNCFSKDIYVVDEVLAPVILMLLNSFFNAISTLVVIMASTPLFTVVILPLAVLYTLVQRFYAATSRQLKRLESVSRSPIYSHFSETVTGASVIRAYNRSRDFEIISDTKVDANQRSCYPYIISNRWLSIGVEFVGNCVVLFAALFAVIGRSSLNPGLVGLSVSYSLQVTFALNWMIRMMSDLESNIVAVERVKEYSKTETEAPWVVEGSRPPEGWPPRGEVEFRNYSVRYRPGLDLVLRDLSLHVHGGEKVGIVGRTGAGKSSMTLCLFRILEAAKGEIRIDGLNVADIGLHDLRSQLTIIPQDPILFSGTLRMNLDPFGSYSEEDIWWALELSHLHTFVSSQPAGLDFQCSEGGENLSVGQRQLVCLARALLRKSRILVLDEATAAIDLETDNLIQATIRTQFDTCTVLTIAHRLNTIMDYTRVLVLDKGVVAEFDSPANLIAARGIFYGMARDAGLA

[5] = Ratio of drug concentration at steady state in human at 750 mg, po TID or 1250 mg, po BID after 12 hrs to IC50 for human MRP4 overexpressed in Sf9 insect cells; assay type: ADME, organism-based; conditions: in vivo
[6] = target: T1, ATP-binding cassette sub-family C member 4 (Homo sapiens, UniProt O15439); assay: Inhibition of human MRP4 overexpressed in Sf9 cell membrane vesicles assessed as uptake of [3H]-estradiol-17beta-D-glucuronide in presence of ATP and GSH measured after 20 mins by membrane vesicle transport assay; assay type: ADME, cell-based
T1 sequence (O15439 whole entry): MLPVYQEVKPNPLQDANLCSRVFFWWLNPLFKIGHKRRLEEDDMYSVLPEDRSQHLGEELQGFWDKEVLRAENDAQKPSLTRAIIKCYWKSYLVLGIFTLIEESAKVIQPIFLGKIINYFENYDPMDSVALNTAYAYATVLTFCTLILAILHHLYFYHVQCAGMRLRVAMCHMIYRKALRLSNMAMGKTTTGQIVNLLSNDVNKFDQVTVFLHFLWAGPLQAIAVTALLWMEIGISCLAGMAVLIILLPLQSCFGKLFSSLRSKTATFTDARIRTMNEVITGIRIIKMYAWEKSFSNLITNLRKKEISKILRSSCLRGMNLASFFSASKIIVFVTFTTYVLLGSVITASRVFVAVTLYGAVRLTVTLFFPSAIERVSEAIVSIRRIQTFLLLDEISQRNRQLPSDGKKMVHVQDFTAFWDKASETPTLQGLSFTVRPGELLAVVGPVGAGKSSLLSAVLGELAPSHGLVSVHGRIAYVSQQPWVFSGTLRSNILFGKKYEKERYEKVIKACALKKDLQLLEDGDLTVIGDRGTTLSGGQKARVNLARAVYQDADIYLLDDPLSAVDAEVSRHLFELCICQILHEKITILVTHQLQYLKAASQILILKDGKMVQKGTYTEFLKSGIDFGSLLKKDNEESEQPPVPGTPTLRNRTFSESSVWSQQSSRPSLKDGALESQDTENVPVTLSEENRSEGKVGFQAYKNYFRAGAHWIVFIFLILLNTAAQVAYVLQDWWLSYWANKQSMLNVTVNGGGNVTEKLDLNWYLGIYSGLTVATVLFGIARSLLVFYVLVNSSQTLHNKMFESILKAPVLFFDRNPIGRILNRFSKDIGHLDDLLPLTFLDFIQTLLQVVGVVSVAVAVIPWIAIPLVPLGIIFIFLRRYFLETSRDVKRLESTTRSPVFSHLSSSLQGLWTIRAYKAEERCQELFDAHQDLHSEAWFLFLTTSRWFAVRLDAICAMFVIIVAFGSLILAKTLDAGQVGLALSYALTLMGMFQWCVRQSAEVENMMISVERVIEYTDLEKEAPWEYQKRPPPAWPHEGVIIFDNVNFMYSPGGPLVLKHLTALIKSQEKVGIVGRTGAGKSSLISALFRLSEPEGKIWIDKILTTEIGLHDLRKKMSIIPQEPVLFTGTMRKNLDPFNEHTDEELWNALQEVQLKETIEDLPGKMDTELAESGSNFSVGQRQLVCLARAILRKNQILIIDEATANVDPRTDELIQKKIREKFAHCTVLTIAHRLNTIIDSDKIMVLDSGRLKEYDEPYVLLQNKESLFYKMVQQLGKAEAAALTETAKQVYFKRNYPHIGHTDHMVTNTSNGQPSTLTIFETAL

[7] = Ratio of drug concentration at steady state in human at 750 mg, po TID or 1250 mg, po BID after 12 hrs to IC50 for human BSEP overexpressed in Sf9 insect cells; assay type: ADME, organism-based; conditions: in vivo
[8] = Drug concentration at steady state in human at 600 mg, po BID after 12 hrs; assay type: ADME, organism-based; conditions: in vivo, read-out: Css
[9] = AUC in human at 600 mg, po BID after 12 hrs; assay type: ADME, organism-based; parameters: dose 600 mg, time < 12 hr, route oral; conditions: in vivo
[10] = Ratio of drug concentration at steady state in human at 200 to 800 mg, po QD after 24 hrs to IC50 for human MRP4 overexpressed in Sf9 insect cells; assay type: ADME, organism-based; conditions: in vivo
[11] = Ratio of drug concentration at steady state in human at 200 to 800 mg, po QD after 24 hrs to IC50 for human BSEP overexpressed in Sf9 insect cells; assay type: ADME, organism-based; conditions: in vivo
[12] = target: Bile salt export pump (Homo sapiens, UniProt O95342); assay: Inhibition of human BSEP overexpressed in Sf9 cell membrane vesicles assessed as uptake of [3H]-taurocholate in presence of ATP measured after 15 to 20 mins by membrane vesicle transport assay; assay type: ADME, cell-based
Sequence of Bile salt export pump (O95342 whole entry): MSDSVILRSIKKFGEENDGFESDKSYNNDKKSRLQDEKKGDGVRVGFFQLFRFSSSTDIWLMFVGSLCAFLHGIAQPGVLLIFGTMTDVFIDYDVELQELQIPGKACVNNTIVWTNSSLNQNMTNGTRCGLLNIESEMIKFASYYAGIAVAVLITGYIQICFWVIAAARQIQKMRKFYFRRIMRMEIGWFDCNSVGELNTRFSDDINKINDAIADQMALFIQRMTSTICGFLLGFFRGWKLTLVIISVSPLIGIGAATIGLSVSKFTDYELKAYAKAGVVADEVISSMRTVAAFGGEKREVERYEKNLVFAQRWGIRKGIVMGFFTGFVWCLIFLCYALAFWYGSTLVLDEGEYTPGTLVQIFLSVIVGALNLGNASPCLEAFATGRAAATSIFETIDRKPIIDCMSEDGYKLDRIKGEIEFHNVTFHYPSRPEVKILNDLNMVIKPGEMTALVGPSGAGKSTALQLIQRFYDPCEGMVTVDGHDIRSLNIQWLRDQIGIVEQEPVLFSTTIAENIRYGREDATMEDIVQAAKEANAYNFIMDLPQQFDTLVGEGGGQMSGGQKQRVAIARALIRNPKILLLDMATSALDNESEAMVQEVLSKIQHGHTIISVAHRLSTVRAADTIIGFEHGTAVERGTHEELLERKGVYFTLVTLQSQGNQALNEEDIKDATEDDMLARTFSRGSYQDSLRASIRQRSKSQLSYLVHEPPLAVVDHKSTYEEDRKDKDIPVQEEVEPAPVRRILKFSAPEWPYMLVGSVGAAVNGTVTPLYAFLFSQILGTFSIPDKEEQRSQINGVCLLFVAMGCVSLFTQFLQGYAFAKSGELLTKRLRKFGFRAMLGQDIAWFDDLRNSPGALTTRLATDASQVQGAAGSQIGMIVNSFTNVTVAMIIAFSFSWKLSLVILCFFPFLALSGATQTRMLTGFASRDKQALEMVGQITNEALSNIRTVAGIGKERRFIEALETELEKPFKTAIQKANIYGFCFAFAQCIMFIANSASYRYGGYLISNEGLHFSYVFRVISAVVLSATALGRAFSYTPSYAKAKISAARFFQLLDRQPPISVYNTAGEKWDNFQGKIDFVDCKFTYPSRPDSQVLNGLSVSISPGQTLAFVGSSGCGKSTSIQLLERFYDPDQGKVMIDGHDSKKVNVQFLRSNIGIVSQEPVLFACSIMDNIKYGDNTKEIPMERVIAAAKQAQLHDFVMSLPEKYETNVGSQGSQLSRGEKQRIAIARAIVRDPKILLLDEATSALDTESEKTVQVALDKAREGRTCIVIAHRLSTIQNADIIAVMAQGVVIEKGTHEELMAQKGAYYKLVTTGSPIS

[13] = Drug concentration at steady state in human at 200 to 800 mg, po QD after 24 hrs; assay type: ADME, organism-based; conditions: in vivo, read-out: Css
[14] = AUC in human at 200 to 800 mg, po QD after 24 hrs; assay type: ADME, organism-based; conditions: in vivo
[15] = AUC in human at 75 to 600 mg, iv QD after 24 hrs; assay type: ADME, organism-based; conditions: in vivo
[16] = Drug concentration at steady state in human at 75 to 600 mg, iv QD after 24 hrs; assay type: ADME, organism-based; conditions: in vivo, read-out: Css
[17] = AUC in human at 600 mg, po QD after 24 hrs; assay type: ADME, organism-based; parameters: time < 24 hr, dose 600 mg, route oral; conditions: in vivo
[18] = Drug concentration at steady state in human at 600 mg, po QD after 24 hrs; assay type: ADME, organism-based; conditions: in vivo, read-out: Css
[19] = Ratio of drug concentration at steady state in human at 600 mg, po QD after 24 hrs to IC50 for human BSEP overexpressed in Sf9 insect cells; assay type: ADME, organism-based; conditions: in vivo
[20] = Drug concentration at steady state in patient with osteomyelitis at 1500 mg, po QD after 24 hrs; assay type: ADME, organism-based; conditions: human, in vivo, read-out: Css
[21] = AUC in patient with osteomyelitis at 1500 mg, po QD after 24 hrs; assay type: ADME, organism-based; parameters: time < 24 hr, dose 1500 mg, route oral; conditions: human, in vivo
[22] = Ratio of drug concentration at steady state in patient with osteomyelitis at 1500 mg, po QD after 24 hrs to IC50 for human BSEP overexpressed in Sf9 insect cells; assay type: ADME, organism-based; conditions: in vivo
[23] = Ratio of AUC in liver to plasma in Sprague-Dawley rat at 1500 mg/kg, po administered as single oral gavage measured after 24 hrs by Liquid chromatography/tandem mass spectrometry; assay type: ADME, organism-based; conditions: liver and plasma, read-out: Ratio AUC
[24] = system: Homo sapiens; assay: Drug concentration at steady state in human at 100 mg, po BID; assay type: ADME, organism-based; conditions: in vivo
[25] = Ratio of drug concentration at steady state in human at 100 mg, po BID to IC50 for human MRP4 overexpressed in Sf9 insect cells; assay type: ADME, organism-based; conditions: in vivo
[26] = Ratio of drug concentration at steady state in human at 100 mg, po BID to IC50 for human BSEP overexpressed in Sf9 insect cells; assay type: ADME, organism-based; conditions: in vivo
[27] = AUC in human at 100 mg, po BID; assay type: ADME, organism-based; conditions: in vivo
[28] = Ratio of drug concentration at steady state in human at 100 mg, po BID to IC50 for human MRP3 overexpressed in Sf9 insect cells; assay type: ADME, organism-based; conditions: in vivo
[29] = AUC in human at 1 to 1.5 g, po BID after 12 hrs; assay type: ADME, organism-based; conditions: in vivo
[30] = Drug concentration at steady state in human at 1 to 1.5 g, po BID after 12 hrs; assay type: ADME, organism-based; conditions: in vivo, read-out: Css
[31] = Ratio of drug concentration at steady state in human at 1 to 1.5 g, po BID after 12 hrs to IC50 for human BSEP overexpressed in Sf9 insect cells; assay type: ADME, organism-based; conditions: in vivo
[32] = Ratio of drug concentration at steady state in human at 1 to 1.5 g, po BID after 12 hrs to IC50 for human MRP4 overexpressed in Sf9 insect cells; assay type: ADME, organism-based; conditions: in vivo

## Cc1c(O)cccc1C(=O)N[C@@H](CSc1ccccc1)[C@H](O)CN1C[C@H]2CCCC[C@H]2C[C@H]1C(=O)NC(C)(C)C
[1]
  Css: 6.482 µM
[2]
  IC50: > 133 µM
[3]
  AUC at 12 h: 77.8 µM·h
[4]
  IC50: > 133 µM
[5]
  Ratio: 0.067
[6]
  IC50: 97 µM
[7]
  Ratio: 0.549

## CC(C)c1nc(CN(C)C(=O)N[C@H](C(=O)N[C@@H](Cc2ccccc2)C[C@H](O)[C@H](Cc2ccccc2)NC(=O)OCc2cncs2)C(C)C)cs1 [RITONAVIR]
[8]
  concentration at 12 h: 34.4 µM
[9]
  AUC at 12 h: 413 µM·h

## Cc1ccc(Nc2nccc(N(C)c3ccc4c(C)n(C)nc4c3)n2)cc1S(N)(=O)=O [PAZOPANIB]
[10]
  Ratio: 12.192
[2]
  IC50: > 133 µM
[4]
  IC50: > 133 µM
[11]
  Ratio: 9.588
[6]
  IC50: 8.1 µM
[12]
  IC50: 10.3 µM
[13]
  concentration at 24 h: 98.8 µM
[14]
  AUC at 24 h: 2370 µM·h

## CN(C)C(=O)CCSC(SCCC(=O)O)c1cccc(/C=C/c2ccc3ccc(Cl)cc3n2)c1 (stereo unspecified) [MK-571]
[2]
  IC50: > 133 µM
[15]
  AUC at 24 h: 447 µM·h
[4]
  IC50: 9.3 µM
[16]
  concentration at 24 h: 18.6 µM

## CC#C[C@]1(O)CC[C@H]2[C@@H]3CCC4=CC(=O)CCC4=C3[C@@H](c3ccc(N(C)C)cc3)C[C@@]21C [MIFEPRISTONE]
[2]
  IC50: > 133 µM
[17]
  AUC at 24 h: 181 µM·h
[4]
  IC50: > 133 µM
[18]
  concentration at 24 h: 7.56 µM
[6]
  IC50: > 133 µM
[12]
  IC50: 2.02 µM
[19]
  Ratio: 3.743

## CC(=O)O[C@H]1C[C@@]2(C)[C@@H](C[C@@H](O)[C@H]3[C@@]4(C)CC[C@@H](O)[C@@H](C)[C@@H]4CC[C@@]32C)/C1=C(\CCC=C(C)C)C(=O)O [FUSIDIC ACID]
[20]
  concentration at 24 h: 266 µM
[2]
  IC50: > 133 µM
[4]
  IC50: > 133 µM
[21]
  AUC at 24 h: 6390 µM·h
[6]
  IC50: > 133 µM
[22]
  Ratio: 26.38

## CCCCNC(=O)c1ccc(Oc2ccc(CC(=O)O)cc2OC)c(NS(=O)(=O)c2ccc(Cl)cc2Cl)c1
[23]
  Kp at 24 h: 27
[4]
  IC50: 1.1 µM
[24]
  Css: 2.4 µM
[25]
  Ratio: 0.18
[6]
  IC50: 13.5 µM
[12]
  IC50: 11.5 µM
[26]
  Ratio: 0.21
[27]
  AUC: 32800 ng·h/mL
[28]
  Ratio: 2.2

## COc1c(C)c2c(c(O)c1C/C=C(\C)CCC(=O)OCCN1CCOCC1)C(=O)OC2 [MYCOPHENOLATE MOFETIL]
[29]
  AUC at 12 h: 45700 ng·h/mL
[2]
  IC50: > 133 µM
[4]
  IC50: > 133 µM
[30]
  concentration at 12 h: 3810 µM
[31]
  Ratio: 49.945
[6]
  IC50: 83 µM
[12]
  IC50: 76 µM
[32]
  Ratio: 45.853
